Measurements: US9096544B2, “Therapeutic compounds” (Wayne State University, priority 2009, dated 2015)

Key:
Format in all cases: cell-based
caspase-3 = assay: Caspase-3 activation and cleavage in AML cells; settings: FFMA-AML and TF(vSRC) cells; 1 μM; lysates
Experimental: FIG. 4 illustrates 3-Cl-AHPC and compound 16-mediated caspase-3 activation and cleavage of caspase-3. A) Activation of caspase-3 in FFMA-AML and TF(vSRC) cells following exposure to 1 μM 3-Cl-AHPC and compound 16 for varying times. B) Generation of the caspase-3 (17 kDa) fragment and caspase-3 protein levels (α-tubulin used as loading control). Columns represent mean of three independent experiments. […] (p value is <0.01 as determined by t test).
To further document 3-Cl-AHPC and compound 16-mediated apoptosis in the FFMA-AML and TF(v-SRC) cells, cells were exposed to 1 μM 3-Cl-AHPC or compound 16 for varying times, and then annexin V-FITC binding assessed using flow cytometry.

COLO357 cells = assay: Test I: growth inhibition of COLO357 cells (MTT); settings: 1 μM
Experimental: Pancreatic cancer cell lines (COLO357, PANC-1, Capan-2, AsPc-1 cells and MiaPaCa-2 cells obtained from American Type Culture Collection; ATCC, Rockville, Md.) were treated with 1 μM 3-Cl-AHPC and compound 16 for various times. Apoptosis in cells were analyzed by flow cytometry using Annexin V-FITC binding together with propidium iodide (PI) staining (Annexin V-FITC apoptosis Detection Kit 1, BD Biosciences, San Diego, Calif.). Data acquisition was done on a FACS Calibur flow cytometer (BD) and analyzed with CellQuest software (BD Biosciences). 3-Cl-AHPC and compound 16 mediated inhibition of cell growth were determined by 3-(4,5-dimethylthiazol-2-yl)-2,5-diphenyltetrazolium bromide (MTT) assay. The cells were seeded on 96-well plates at a density of 4×10^4 cells/well in a volume of 200 μl culture medium. 1 μM AHP3 and 3-Cl-AHPC in DMSO (final concentration 0.1%) were added to the cells for various times. […] After discarding the medium, MTT precipitates were solubilized with 200 μl DMSO and the plates read on a BioTeK Synergy HT (BioTeK Instrument Inc., Vermont) at an absorbance 570 nm. […] The spheroids were stained with acridine orange/ethidium bromide staining and immediately visualized and photographed with fluorescence microscope (OLYMPUS CKX41). […] Then spheroids were visualized and photographed with a fluorescence microscope.

[1] = test system: pancreatic cancer stem cell spheroids; assay: Test J: disaggregation of and apoptosis in pancreatic cancer stem cell spheroids; settings: for effect on formed spheroids: added to pancreatic cancer stem cell spheroids; for exposure resulting in disaggregation of the spheroid and induction of apoptosis: as little as
Experimental: Apoptosis and Growth Inhibition of Pancreatic Cancer Stem Cells (Obtained from PANC-1, Capan-2 and MiaPaCa-2 Cells) by Compound 16 and 3-Cl-AHPC.
The sorted CD44^+/CD24^+ cells were suspended in serum-free stem cell medium containing DMEM/F12 (1:1) supplemented with B27 (Life Technologies, Gaithersburg, Md.), 20 ng/ml EGF (Biomol International, Plymouth, Pa.)), 20 ng/ml fibroblast growth factor (Biomol International, Plymouth, Pa.), and 100 μg/ml gentamycin. Approximately 150-200 cells per well were seeded in an ultra low-attachment 96-well plate (Corning Inc, Lowell, Mass.). 3-Cl-AHPC and compound 16 were added the day after cells were plated or after 7 days of spheroid formation. Spheriods were photographed and measured utilizing a Olympus microscope (OLYMPUS CKX41) and Olympus microscope digital camera with DP2-BSW software (Olympus soft imaging solutions GmbH, Germany).
DMSO (vehicle) and 3-Cl-AHPC treated spheroids were centrifuged at 1000 rpm for 5 minutes, washed in PBS, 22% bovine serum albumin added to the spheroids pellet, 95% ethanol placed on the spheroids pellet and the pellet allowed to harden for 30 minutes. Neutral buffered formalin (10%) was added to fix the cell pellet for at least 2 h and the spheroids were then placed in a labeled plastic tissue embedding cassette containing 10% neutral buffered formalin overnight. The spheroids were processed in a Sakura Tissue-Tek Processor for overnight dehydration in graded ethanol, clearing in xylene and infiltration with paraffin. The spheroids were placed in a 4 μm embedding mold for final paraffin embedding.
The TUNEL assay was performed using the In Situ Cell Death Detection kit, POD (Roche-Applied-Science, Mannheim, Germany) according to the manufacturer's instructions.
The paraffin embedding spheroids were deparaffinized and rehydrated, then tissues sections were incubated with proteinase K solution (10-20 μg/ml) for 30 min. Tissues were then rinsed twice in PBS and reacted with 50 μl of the TUNEL reaction mixture at room temperature for 60 min in a dark, humidified chamber. Sections were again rinsed in PBS and incubated for 30 min with 50 μl of the Converter-POD (RocheApplied-Science) and followed by 3-amino-9-ethylcarbazole (AEC). Sections were then counterstained with hematoxylin. As negative controls, corresponding sections were treated in the same way without terminal, deoxynucleotidyl transferase.

O=C(O)C=Cc1ccc(-c2ccc(O)c(C34CC5CC(CC(C5)C3)C4)c2)c(Cl)c1 [Compound 3-Cl-AHPC, 4-[3-(1-adamantyl)-4-hydroxyphenyl]-3-chlorocinnamic acid, reference compound]
caspase-3 activation (17-kDa cleaved caspase-3, caspase-3 activity) (caspase-3): induced caspase-3 activation
inhibition of growth (COLO357 cells): significant inhibition of growth
effect on formed spheroids [1]: resulted in their disaggregation and the induction of apoptosis in the cells comprising the spheroid
exposure resulting in disaggregation of the spheroid and induction of apoptosis [1]: 500 nM

O=C(O)/C=C/c1cnc(-c2ccc(O)c(C34CC5CC(CC(C5)C3)C4)c2)nc1 [Compound 16, (E)-3-[2-(3-(1-Adamantyl)-4-hydroxyphenyl)-5-pyrimidinyl]-2-propenoic acid]
caspase-3 activation (17-kDa cleaved caspase-3, caspase-3 activity) (caspase-3): induced caspase-3 activation
inhibition of growth (COLO357 cells): significant inhibition of growth
effect on formed spheroids [1]: resulted in their disaggregation and the induction of apoptosis in the cells comprising the spheroid
exposure resulting in disaggregation of the spheroid and induction of apoptosis [1]: 500 nM
